Results taken from patent publication US10045983B2, “Heteroaryl pyridone and aza-pyrodine compounds” (Genentech, Inc., priority 2011, dated 2018).
Where two headings read alike, the source gives them in different places.

Experiment: CD69 Whole Blood Assay (CD69 Hu Blood FACS)
Format: cell-based, human
Conditions: Lymphocyte
In short: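 Compounds tested for blocking B-cell CD69 induction by flow cytometry in human whole blood, with activation via anti-human IgM goat F(ab′)2 crosslinking of surface IgM.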

[1] = human whole blood, anti-IgM activated B lymphocytes, FACS, IC70, Table 1, read-out: CD69 Hu Blood FACS IC70
[2] = human whole blood, anti-IgM activated B lymphocytes, FACS, IC70, Table 2 (unit inferred), read-out: CD69 Hu Blood FACS (IC70)

## C[C@@H]1CN(C2COC2)CCN1c1ccc(Nc2cc(-c3ccnc(N4CCn5c(cc6c5CCCC6)C4=O)c3CO)cn(C)c2=O)nc1 [Example 137, (R)-2-(3-(hydroxymethyl)-4-(1-methyl-5-(5-(2-methyl-4-(oxetan-3-yl)piperazin-1-yl)pyridin-2-ylamino)-6-oxo-1,6-dihydropyridin-3-yl)pyridin-2-yl)-3,4,6,7,8,9-hexa-hydropyrazino[1,2-a]indol-1(2H)-one]
[1]
  IC70: 0.0646 µM

## Cn1cc(-c2ccnc(-n3ncc4c5c(sc4c3=O)CC(C)(C)C5)c2CO)cc(Nc2cc3n(n2)CC(C)(C)OC3)c1=O [Example 335, 3-[4-[5-[(6,6-dimethyl-4,7-dihydropyrazolo[5,1-c][1,4]oxazin-2-yl)amino]-1-methyl-6-oxo-3-pyridyl]-3-(hydroxymethyl)-2-pyridyl]-7,7-dimethyl-6,8-dihydrocyclopenta[3,4]thieno[1,3-d]pyridazin-4-one]
[2]
  IC70: 0.0528 µM

## COCCN1CCn2nc(Nc3cc(-c4ccnc(N5CCn6c(cc7c6CC(C)(C)C7)C5=O)c4CO)nn(C)c3=O)cc2C1 [Example 305, 3-[3-(hydroxymethyl)-4-[5-[[5-(2-methoxyethyl)-6,7-dihydro-4H-pyrazolo[1,5-a]pyrazin-2-yl]amino]-1-methyl-6-oxo-pyridazin-3-yl]-2-pyridyl]-7,7-dimethyl-1,2,6,8-tetrahydrocyclopenta[3,4]pyrrolo[3,5-b]pyrazin-4-one]
[2]
  IC70: 0.0832 µM

## C[C@@H]1CN(c2ccc(Nc3cc(-c4ccnc(N5CCn6c(cc7c6CCCC7)C5=O)c4CO)cn(C)c3=O)nc2)[C@@H](C)CN1C1COC1 [Example 122, 2-(4-(5-(5-((2S,5R)-2,5-Dimethyl-4-(oxetan-3-yl)piperazin-1-yl)pyridin-2-ylamino)-1-methyl-6-oxo-1,6-dihydropyridin-3-yl)-3-(hydroxymethyl)pyridin-2-yl)-3,4,6,7,8,9-hexahydropyrazino[1,2-a]indol-1(2H)-one]
[1]
  IC70: 0.0127 µM

## COCCN1CCn2nc(Nc3cc(-c4ccnc(N5CCn6c(cc7c6CC(C)(C)C7)C5=O)c4CO)c(C)n(C)c3=O)cc2C1 [Example 327, 3-[3-(hydroxymethyl)-4-[5-[[5-(2-methoxyethyl)-6,7-dihydro-4H-pyrazolo[1,5-a]pyrazin-2-yl]amino]-1,2-dimethyl-6-oxo-3-pyridyl]-2-pyridyl]-7,7-dimethyl-1,2,6,8-tetrahydrocyclopenta[3,4]pyrrolo[3,5-b]pyrazin-4-one]
[2]
  IC70: 2.2 µM

## COc1ccc(Nc2cc(-c3ccnc(N4CCn5c(cc6c5CC(C)(C)C6)C4=O)c3CO)cn(C)c2=O)nc1 [Example 277, 3-[3-(hydroxymethyl)-4-[5-[(5-methoxy-2-pyridyl)amino]-1-methyl-6-oxo-3-pyridyl]-2-pyridyl]-7,7-dimethyl-1,2,6,8-tetrahydrocyclopenta[3,4]pyrrolo[3,5-b]pyrazin-4-one]
[2]
  IC70: 0.339 µM

## Cn1cc(-c2ccnc(N3CCn4c(cc5c4CCCC5)C3=O)c2CO)cc(Nc2ccc(N3[C@@H]4CC[C@H]3CN(C3COC3)C4)cn2)c1=O [Example 152, 2-{3′-Hydroxymethyl-1-methyl-5-[5-((1 S,5R)-3-oxetan-3-yl-3,8-diaza-bicyclo[3.2.1]oct-8-yl)-pyridin-2-ylamino]-6-oxo-1,6-dihydro-[3,4′]bipyridinyl-2′-yl}-3,4,6,7,8,9-hexahydro-2H-pyrazino[1,2-a]indol-1-one]
Homo sapiens, read-out: CD69 Hu Blood FACS IC70 (μM)
  IC70: 0.188 µM

## Cc1cc(Nc2cc(-c3ccnc(N4CCn5c(cc6c5CC(C)(C)C6)C4=O)c3CO)cn(C)c2=O)nn1C1COC1 [Example 312, 3-[3-(hydroxymethyl)-4-[1-methyl-5-[[5-methyl-1-(oxetan-3-yl)pyrazol-3-yl]amino]-6-oxo-3-pyridyl]-2-pyridyl]-7,7-dimethyl-1,2,6,8-tetrahydrocyclopenta[3,4]pyrrolo[3,5-b]pyrazin-4-one]
[2]
  IC70: 5.6 µM

## Cn1cc(-c2ccnc(N3CCn4c5c(c(F)c4C3=O)CCCC5)c2CO)nc(Nc2cccnc2)c1=O [Example 186, 10-fluoro-2-(3-(hydroxymethyl)-4-(4-methyl-5-oxo-6-(pyridin-3-ylamino)-4,5-dihydropyrazin-2-yl)pyridin-2-yl)-3,4,6,7,8,9-hexahydropyrazino[1,2-a]indol-1(2H)-one]
[1]
  IC70: 1.6 µM

## C[C@H]1CN(C2COC2)CCN1c1ccc(Nc2cc(-c3ccnc(-n4ncc5c(cc6n5CCCC6)c4=O)c3CO)cn(C)c2=O)nc1 [Example 193, 2-[3-(hydroxymethyl)-4-[1-methyl-5-[[5-[(2S)-2-methyl-4-(oxetan-3-yl)piperazin-1-yl]-2-pyridyl]amino]-6-oxo-3-pyridyl]-2-pyridyl]-6,7,8,9-tetrahydropyridazino[4,5-b]indolizin-1-one]
[2]
  IC70: 0.0995 µM

## COCCN1CCn2nc(Nc3cc(-c4nccc(N5CCn6c(cc7c6CC(C)(C)C7)C5=O)c4CO)cn(C)c3=O)cc2C1 [Example 329, 3-[3-(hydroxymethyl)-2-[5-[[5-(2-methoxyethyl)-6,7-dihydro-4H-pyrazolo[1,5-a]pyrazin-2-yl]amino]-1-methyl-6-oxo-3-pyridyl]-4-pyridyl]-7,7-dimethyl-1,2,6,8-tetrahydrocyclopenta[3,4]pyrrolo[3,5-b]pyrazin-4-one]
[2]
  IC70: 0.11 µM

## Cc1nccc(Nc2cc(-c3ccnc(N4CCn5c(cc6c5CC(C)(C)C6)C4=O)c3CO)c[nH]c2=O)n1 [Example 222, 3-[3-(hydroxymethyl)-4-[5-[(2-methylpyrimidin-4-yl)amino]-6-oxo-1H-pyridin-3-yl]-2-pyridyl]-7,7-dimethyl-1,2,6,8-tetrahydrocyclopenta[3,4]pyrrolo[3,5-b]pyrazin-4-one]
[2]
  IC70: 0.178 µM

## Cn1cc(-c2ccnc(N3CCn4c(cc5c4CC(C)(C)C5)C3=O)c2CO)cc(Nc2cnc(C#N)cn2)c1=O [Example 298, 5-[[5-[2-(7,7-dimethyl-4-oxo-1,2,6,8-tetrahydrocyclopenta[3,4]pyrrolo[3,5-b]pyrazin-3-yl)-3-(hydroxymethyl)-4-pyridyl]-1-methyl-2-oxo-3-pyridyl]amino]pyrazine-2-carbonitrile]
[2]
  IC70: 0.869 µM

## C[C@@H]1CN(C2COC2)CCN1c1ccc(Nc2cc(-c3ccnc(-n4ncc5c6c(sc5c4=O)CCCC6)c3CO)cn(C)c2=O)nc1 [Example 154, 3-{3′-Hydroxymethyl-1-methyl-5-[5-((R)-2-methyl-4-oxetan-3-yl-piperazin-1-yl)-pyridin-2-ylamino]-6-oxo-1,6-dihydro-[3,4′]bipyridinyl-2′-yl}-6,7,8,9-tetrahydro-3H-benzo[4,5]thieno[2,3-d]pyridazin-4-one]
[1]
  IC70: 0.0374 µM

## C[C@H]1CN(C2COC2)CCN1c1ccc(Nc2cc(-c3ccnc(-n4ncc5c6n(cc5c4=O)CCCC6)c3CO)cn(C)c2=O)nc1 [Example 192, 3-[3-(hydroxymethyl)-4-[1-methyl-5-[[5-[(2S)-2-methyl-4-(oxetan-3-yl)piperazin-1-yl]-2-pyridyl]amino]-6-oxo-3-pyridyl]-2-pyridyl]-7,8,9,10-tetrahydropyridazino[4,5-a]indolizin-4-one]
[2]
  IC70: 1.1 µM

## Cn1cc(-c2ccnc(N3CCn4c(cc5c4CCCC5)C3=O)c2CO)cc(Nc2cn(C3CCN(C4COC4)CC3)cn2)c1=O [Example 243, 2-[3-(hydroxymethyl)-4-[1-methyl-5-[[1-[1-(oxetan-3-yl)-4-piperidyl]imidazol-4-yl]amino]-6-oxo-3-pyridyl]-2-pyridyl]-3,4,6,7,8,9-hexahydropyrazino[1,2-a]indol-1-one]
[2]
  IC70: 2.8 µM

## Cn1cc(-c2ccnc(N3CCn4c(cc5c4CC(C)(C)C5)C3=O)c2CO)cc(Nc2ccc(C(=O)N3CCOCC3)cn2)c1=O [Example 269, 3-[3-(hydroxymethyl)-4-[1-methyl-5-[[5-(morpholine-4-carbonyl)-2-pyridyl]amino]-6-oxo-3-pyridyl]-2-pyridyl]-7,7-dimethyl-1,2,6,8-tetrahydrocyclopenta[3,4]pyrrolo[3,5-b]pyrazin-4-one]
[2]
  IC70: 0.0251 µM

## Cn1cc(-c2ccnc(N3CCn4c(cc5c4CCCC5)C3=O)c2CO)cc(Nc2cc3n(n2)CCN(C2CC2)C3)c1=O [Example 128, 2-(4-(5-(5-Cyclopropyl-4,5,6,7-tetrahydropyrazolo[1,5-a]pyrazin-2-ylamino)-1-methyl-6-oxo-1,6-dihydropyridin-3-yl)-3-(hydroxymethyl)pyridin-2-yl)-3,4,6,7,8,9-hexahydropyrazino[1,2-a]indol-1(2H)-one]
[1]
  IC70: 0.0918 µM

## CCc1nccc(Nc2cc(-c3ccnc(N4CCn5c(cc6c5CC(C)(C)C6)C4=O)c3CO)cn(C)c2=O)n1 [Example 229, 3-[4-[5-[(2-ethylpyrimidin-4-yl)amino]-1-methyl-6-oxo-3-pyridyl]-3-(hydroxymethyl)-2-pyridyl]-7,7-dimethyl-1,2,6,8-tetrahydrocyclopenta[3,4]pyrrolo[3,5-b]pyrazin-4-one]
[2]
  IC70: 0.583 µM

## Cn1cc(-c2ccnc(N3CCn4c(cc5c4CC(C)(C)C5)C3=O)c2CO)nc(Nc2cccc(N)c2)c1=O [Example 219, 3-[4-[6-(3-aminoanilino)-4-methyl-5-oxo-pyrazin-2-yl]-3-(hydroxymethyl)-2-pyridyl]-7,7-dimethyl-1,2,6,8-tetrahydrocyclopenta[3,4]pyrrolo[3,5-b]pyrazin-4-one]
[2]
  IC70: 0.204 µM

## COC[C@H](C)N1CCn2nc(Nc3cc(-c4ccnc(N5CCn6c(cc7c6CC(C)(C)C7)C5=O)c4CO)cn(C)c3=O)cc2C1 (single isomer, unassigned) [Example 303]
[2]
  IC70: 0.0179 µM

## Cn1cc(-c2ccnc(N3CCn4c(cc5c4CC(C)(C)C5)C3=O)c2CO)cc(Nc2cc3n(n2)CCOC3)c1=O [Example 168, 2-[5-(6,7-Dihydro-4H-pyrazolo[5,1-c][1,4]oxazin-2-ylamino)-3′-hydroxymethyl-1-methyl-6-oxo-1,6-dihydro-[3,4′]bipyridinyl-2′-yl]-7,7-dimethyl-3,4,7,8-tetrahydro-2H,6H-cyclopenta[4,5]pyrrolo[1,2-a]pyrazin-1-one]
[1]
  IC70: 0.0635 µM

## Cn1cc(Nc2cc(-c3ccnc(N4CCn5c(cc6c5CC(C)(C)C6)C4=O)c3CO)cn(C)c2=O)nn1 [Example 293, 3-[3-(hydroxymethyl)-4-[1-methyl-5-[(1-methyltriazol-4-yl)amino]-6-oxo-3-pyridyl]-2-pyridyl]-7,7-dimethyl-1,2,6,8-tetrahydrocyclopenta[3,4]pyrrolo[3,5-b]pyrazin-4-one]
[2]
  IC70: 0.0691 µM
